In patent US4202941A, “Glycerol oxidase and process for the production thereof and method for the quantitative determination of glycerol by glycerol oxidase” (Kyowa Hakko Kogyo, Co. Ltd., priority 1977, dated 1980):
Where two headings read alike, the source gives them in different places.

How the values were obtained:
[1] = tested on: Enzyme of the genus Aspergillus (glycerol oxidase); experiment: Inhibition of enzyme activity by 1 mM inhibitors (4-AA method); assay type: biochemical, Aspergillus japonicus KY-45; set-up: key: % of activity without inhibitor (no inhibitor = 100)
Method: (§1) The enzyme activity is expressed by "unit." A "unit" of the enzyme activity is defined as that amount of enzyme which will decompose 1μ mole of glycerol at 37° C. in 1 minute in the presence of oxygen. The determination of the enzyme activity is carried out as follows: glycerol is reacted with glycerol oxidase with stirring to form hydrogen peroxide, and 4-aminoantipyrine and phenol are reacted with the resulting hydrogen peroxide in the presence of peroxidase to derive quinoneimine pigment. The optical density at 500 nm of the resulting quinoneimine pigment is measured to determine the amount of generated hydrogen peroxide, whereby the enzyme activity is determined (which will be hereinafter referred to as "4-AA method").
(§2) Enzymes activities obtained by adding 1 mM of various inhibitors are shown in Table 1, the activity of the enzyme with no addition of the inhibitor being defined as 100. The activities are measured according to 4-AA method deriving a pigment of 4-aminoantipyrine system from the generated H2 O2.
(§3) Enzymological and physico-chemical properties of glycerol oxidase thus obtained are described below (as glycerol oxidase, the respective purified preparates obtained in Examples 1 and 2, are used).
(§4) Determination of the enzyme activity is carried out by reacting hydrogen peroxide generated by the enzyme with 4-aminoantipyrine and phenol in the presence of peroxidase to obtain quinoneimine pigment, and quantitatively determining the resulting quinoneimine pigment.
(§5) The reagents (1)-(6) are mixed in a test tube, and then shaken at 37° C. for 5 minutes. Then, enzyme solution is added thereto, and thus obtained mixture is made up to 3 ml with ammonium buffer solution. Reaction is carried out at 37° C. for 10 minutes with shaking. On the other hand, similar procedure is repeated using water in place of the test solution as a reference. The optical density of the reaction solution at 500 nm is measured, and a difference from the control is determined as Δ OD (optical density).
(§6) On the other hand, the absorption coefficient of 0.5 mM of quinoneimine pigment is reported as 5.33 [Clin. Chem. 20, 470 (1974)], and thus, if the optical density (Δ OD) at 500 nm of 3 ml of the reaction solution obtained according to the foregoing operational procedure IV-(c) is represented by a, the desired enzyme activity (A) per milliliter of the enzyme solution is calculated from the following formula: [formula]

[2] = tested on: Enzyme of the genus Aspergillus (glycerol oxidase); experiment: Substrate specificity, relative activity by 4-AA method; assay type: biochemical, Aspergillus japonicus KY-45; conditions: substrate equimolar to glycerol
Method: as §1, §3
(§7) The relative activity is measured using other substrates in equimolar amounts to that of glycerol in the procedure for measuring the activity according to 4-AA method.
(§8) The relative activities on other substrates are given in Table 3, the activity on glycerol being defined as 100.
as §5

[3] = tested on: Enzyme of the genus Neurospora (glycerol oxidase); experiment: as above; assay type: biochemical, Neurospora crassa KY-462; conditions: substrate equimolar to glycerol
Method: as §1, §3, §7, §8, §5

[4] = tested on: Enzyme of the genus Neurospora (glycerol oxidase); experiment: Inhibition of enzyme activity by 1 mM inhibitors (4-AA method); assay type: biochemical, Neurospora crassa KY-462; set-up: key: % of activity without inhibitor (no inhibitor = 100)
Method: as §1, §2, §3, §4, §5, §6

[5] = 1 mM inhibitor, Enzyme of the genus Aspergillus, 4-AA method
[6] = 1 mM inhibitor, Enzyme of the genus Neurospora, 4-AA method

| SMILES | Enzyme activity on adding inhibitor (activity with no inhibitor defined as 100) [1, 5] | Relative activity on substrate (activity on glycerol defined as 100) [2] | Relative activity on substrate (activity on glycerol defined as 100) [3] | other results |
| --- | --- | --- | --- | --- |
| O[C@H](CS)[C@H](O)CS (racemic) [dithiothreitol] | 100 | – | – | – |
| c1cnc2c(c1)ccc1cccnc12 [0-phenanthroline] | 90 | – | – | – |
| CC(O)CO (stereo not shown) [1,2-propanediol] | – | 10.5 | 0 | – |
| CC(O)CCO (stereo not shown) [1,3-butanediol] | – | 2.0 | 0 | – |
| OCCCO [1,3-propanediol] | – | 3.3 | 0 | – |
| OCCCCO [1,4-butanediol] | – | 0.3 | 0 | – |
| CC(O)C(C)O (stereo not shown) [2,3-butanediol] | – | 0.3 | 0 | – |
| Oc1cccc2cccnc12 [8-hydroxyquinoline] | – | – | – | Enzyme activity on adding inhibitor (activity with no inhibitor defined as 100) [1]: 90 |
| O=[N+]([O-])[O-].[Ag+] [AgNO3] | 30 | – | – | – |
| O=S(=O)([O-])[O-].[Cu+2] [CuSO4] | 10 | – | – | Enzyme activity on adding inhibitor (activity with no inhibitor defined as 100) [4, 6]: 20 |
| O=C(O)CN(CCN(CC(=O)O)CC(=O)O)CC(=O)O [EDTA] | – | – | – | Enzyme activity on adding inhibitor (activity with no inhibitor defined as 100) [1]: 105; Enzyme activity on adding inhibitor (activity with no inhibitor defined as 100) [4, 6]: 80 |
| O=S(=O)([O-])[O-].[Fe+2] [FeSO4] | – | – | – | Enzyme activity on adding inhibitor (activity with no inhibitor defined as 100) [4, 6]: 0 |
| O=P(O)(O)OCC(O)CO (stereo not shown) [Glycerol-3-phosphoric acid] | – | 0.4 | 21 | – |
| [Cl][Hg][Cl] [HgCl2] | 20 | – | – | Enzyme activity on adding inhibitor (activity with no inhibitor defined as 100) [4, 6]: 23 |
| CCN1C(=O)C=CC1=O [N-ethylmaleimide] | 100 | – | – | – |
| Cl.NO [NH2 OH--HCl] | 0 | – | – | Enzyme activity on adding inhibitor (activity with no inhibitor defined as 100) [4, 6]: 0 |
| [N-]=[N+]=[N-].[Na+] [NaN3] | 20 | – | – | – |
| O=C(O)c1cc[c]([Hg][Cl])cc1 [PCMB, p-chloromercuribenzoate] | 50 | – | – | Enzyme activity on adding inhibitor (activity with no inhibitor defined as 100) [4, 6]: 108 |
| CC(=O)[O-].CC(=O)[O-].[Pb+2] [Pb(CH3 COO)2] | 15 | – | – | – |
| O=S(=O)([O-])[O-].[Zn+2] [ZnSO4] | – | – | – | Enzyme activity on adding inhibitor (activity with no inhibitor defined as 100) [4, 6]: 23 |
| N[C@@H](CS)C(=O)O [cysteine] | – | – | – | Enzyme activity on adding inhibitor (activity with no inhibitor defined as 100) [4, 6]: 60 |
| CCO [ethanol] | – | 0 | 0 | – |
| OCC(O)CO [glycerol] | – | 100 | 100 | – |
| O=C(O)CI [iodoacetate] | – | – | – | Enzyme activity on adding inhibitor (activity with no inhibitor defined as 100) [4]: 100 |
| CC(C)O [isopropyl alcohol] | – | 0 | 0 | – |
| CCCO [n-propyl alcohol] | – | 0 | 0 | – |
| Cc1ccc2ccc3ccc(C)nc3c2n1 [neocuproine] | 100 | – | – | – |
| c1ccc(-c2ccccn2)nc1 [α,α'-dipyridyl] | 85 | – | – | – |
